For this test, the system named is LXRα and/or LXRβ. Put plainly: Co-transfection assay (LXRE luciferase reporter, CV-1 cells). It is filed as cell-based, human. To be noted: for IC50 or EC50 (potency, activation or inhibition): tested as described in Example 33, IC50 or EC50 for LXRα and/or LXRβ, isoform not specified, read-out: activity (IC50 or EC50 for LXR); for pEC50: read-out: activity (IC50 or EC50 for LXR), tested as described in Example 33, isoform not specified. The source says:
To measure the ability of compounds to activate or inhibit the transcriptional activity of LXR in a cell based assay, the co-transfection assay was used. It has been shown that LXR functions as a heterodimer with RXR. For the co-transfection assay, expression plasmids for LXR and RXR are introduced via transient transfection into mammalian cells along with a luciferase reporter plasmid that contains one copy of a DNA sequence that is bound by LXR-RXR heterodimers (LXRE; Willy, P. et. al. 1995). Treatment of transfected cells with an LXR agonist increases the transcriptional activity of LXR, which is measured by an increase in luciferase activity.
CV-1 African Green Monkey Kidney Cells Co-transfection expression plasmids, comprising full-length LXRα (pCMX-h LXRα, LXRβ (pCMX-hLXRβ), or RXRα (pCMX-RXR), reporter plasmid (LXREx1-Tk-Luciferase), and control (pCMX-Galactosidase expression vector) (Willey et al. Genes & Development 9 1033-1045 (1995)). Transfection reagent such as FuGENE6 (Roche). 1× Cell lysis buffer (1% Triton X 100 (J T Baker X200-07), 10% Glycerol (J T Baker M778-07), 5 mM Ditriotreitol (Quantum Bioprobe DTT03; add fresh before lysing), 1 mM EGTA (Ethylene Glycol-bis(B-Amino ethyl ether)-N,N,N′,N′-Tetracetic Acid) (Sigma E-4378), 25 mM Tricine (ICN 807420) pH 7.8) 1× Luciferase assay buffer (pH at 7.8) (0.73 mM ATP, 22.3 mM Tricine, 0.11 mM EDTA, 33.3 mM DTT) 1× Luciferrin/CoA (11 mM Luciferin, 3.05 mM Coenzyme A, 10 mM HEPES)
CV-1 cells were prepared 24 hours prior to the experiment by plating them into T-175 flasks or 500 cm^2 dishes in order to achieve 70-80% confluency on the day of the transfection. The number of cells to be transfected was determined by the number of plates to be screened. Each 384 well plate requires 1.92×10^6 cells or 5000 cells per well. DNA Transfection Reagent was prepared by mixing the required plasmid DNAs with a cationic lipid transfection reagent FuGENE6 (Roche) by following the instructions provided with the reagents. Optimal DNA amounts were determined empirically per cell line and size of vessel to be transfected. 10-12 mL of media was added to the DNA Transfection Reagent and this mixture was added to the cells after aspirating media from the T175 cm^2 flask. Cells were then incubated at least 5 hours at 37° C. to prepare screening cells.
Luciferase assay reagent was prepared by combining before use (per 10 mL): 10 mL 1× Luciferase assay buffer; 0.54 mL of 1× Luciferrin/CoA; 0.54 mL of 0.2 M Magnesium sulfate
Assay plates were prepared by dispensing 5 μL, of compound per well of a 384 well plate to achieve final compound concentration of 10 μM and no more than 1% DMSO. Media was removed from the screening cells, the cells trypsinized, harvested cells by centrifugation, counted, and plated at a density of approximately 5000 cells per well in the 384 well assay plate prepared above in a volume of about 45 μL. Assay plates containing both compounds and screening cells (50 μL in total volume) were incubated for 20 hours at 37° C.
After incubation with compounds, media was removed from the cells and lysis buffer (30 μL/well) added. After 30 minutes at ambient temperature, luciferase assay buffer (30 μL/well) was added and the assay plates read on a luminometer (PE Biosystems Northstar reader with on-board injectors, or equivalent). Plates were read immediately after addition of luciferase assay buffer.
The LXR/LNRE co-transfection assay can be used to establish the EC50/IC50 values for potency and percent activity or inhibition for efficacy. Efficacy defines the activity of a compound relative to a high control ((N-(3-((4-fluorophenyl)-(naphthalene-2-sulfonyl)amino)propyl)-2,2-dimethylpropionamide)) or a low control (DMSO/vehicle). The dose response curves are generated from an 8 point curve with concentrations differing by ½ LOG units. Each point represents the average of 4 wells of data from a 384 well plate. […]
A general note: In a reporter assay the amount or activity of a reporter protein is the signal.

Here are results for 24 compounds from US9000022B2 (Exelixis Patent Company LLC, priority 2005, dated 2015).

pEC50: −log10 of the molar value.

For orientation: pEC50 means the EC50 on a negative log10 scale, so that one unit is a factor of ten.

In the case of `CCS(=O)(=O)c1cc(-c2ccc(-n3cc(C(C)(C)O)nc3Cc3c(Cl)cccc3Cl)cc2)ccc1CO` [Example 8], the IC50 or EC50 (potency, activation or inhibition) was less than 1000 nM.

As for `CCS(=O)(=O)c1cccc(-c2ccc(-n3cc(C(C)(C)O)nc3Cc3c(F)cccc3Cl)cc2)c1` [Example 10, 2-(2-(2-chloro-6-fluorobenzyl)-1-(3′-(ethylsulfonyl)biphenyl-4-yl)-1H-imidazol-4-yl)propan-2-ol], the IC50 or EC50 (potency, activation or inhibition) was less than 1000 nM.

With `CCC(O)(CC)c1cn(-c2ccc(-c3cccc(S(=O)(=O)CC)c3)cc2)c(Cc2ccccc2Cl)n1` [Example 14], the IC50 or EC50 (potency, activation or inhibition) is less than 1000 nM.

In the case of `CCS(=O)(=O)c1cccc(-c2ccc(-n3cc(C(C)(C)O)nc3C(C)(C)c3cccc(Cl)c3Cl)cc2)c1` [Example 22, 2-(2-(2-(2,3-dichloro-phenyl)propan-2-yl)-1-(3′-(ethylsulfonyl)biphenyl-4-yl)-1H-imidazol-4-yl)propan-2-ol], the pEC50 was greater than 6.00.

As to `Cc1cc(-c2cccc(S(C)(=O)=O)c2)ccc1-n1cc(C(C)(C)O)nc1Cc1cccc(Cl)c1Cl` [Example 23, 2-(2-(2,3-dichlorobenzyl)-1-(3-methyl-3′-(methylsulfonyl)biphenyl-4-yl)-1H-imidazol-4-yl)propan-2-ol], the pEC50 is greater than 6.00.

Consider `CCS(=O)(=O)c1cccc(-c2ccc(-n3cc(C(C)(C)O)nc3Cc3cccc(Cl)c3Cl)c(C)c2)c1` [Example 24, 2-(2-(2,3-dichlorobenzyl)-1-(3′-(ethylsulfonyl)-3-methylbiphenyl-4-yl)-1H-imidazol-4-yl)propan-2-ol], for which the negative-log EC50 (pEC50) was greater than 6.00.

As to `CC(C)(O)c1cn(-c2ccc(-c3cccc(S(C)(=O)=O)c3)cc2Cl)c(Cc2cccc(Cl)c2Cl)n1` [Example 25, 2-(1-(3-chloro-3′-(methyl-sulfonyl)biphenyl-4-yl)-2-(2,3-dichlorobenzyl)-1H-imidazol-4-yl)propan-2-ol], the pEC50 was greater than 6.00.

Regarding `CCS(=O)(=O)c1cccc(-c2ccc(-n3cc(C(C)(C)O)nc3Cc3cccc(Cl)c3Cl)c(Cl)c2)c1` [Example 26, 2-(1-(3-chloro-3′-(ethyl-sulfonyl)biphenyl-4-yl)-2-(2,3-dichlorobenzyl)-1H-imidazol-4-yl)propan-2-ol], the pEC50 is greater than 6.00.

As for `CC(C)(O)c1cn(-c2ccc(-c3cccc(S(C)(=O)=O)c3)cc2)c(CCc2ccccc2Cl)n1` [Example 27, 2-(2-(2-chlorophenethyl)-1-(3′-(methylsulfonyl)biphenyl-4-yl)-1H-imidazol-4-yl)propan-2-ol], the pEC50 was greater than 6.00.

Take `CCS(=O)(=O)c1cccc(-c2ccc(-n3cc(C(C)(C)O)nc3CCc3ccccc3Cl)cc2)c1` [Example 28, 2-(2-(2-chlorophenethyl)-1-(3′-(ethylsulfonyl)biphenyl-4-yl)-1H-imidazol-4-yl)propan-2-ol]: the pEC50 is greater than 6.00.

With `CC(C)(O)c1cn(-c2ccc(-c3ccc(CO)c(S(C)(=O)=O)c3)cc2)c(CCc2ccccc2Cl)n1` [Example 29], the IC50 or EC50 (potency, activation or inhibition) is less than 1000 nM.

On to `CC(C)(O)c1cn(-c2ccc(-c3cccc(S(C)(=O)=O)c3)cc2Cl)c(-c2cccc3ccccc23)n1` [Example 30, 2-(1-(3-chloro-3′-(methyl-sulfonyl)biphenyl-4-yl)-2-(naphthalen-1-yl)-1H-imidazol-4-yl)propan-2-ol], for which the IC50 or EC50 (potency, activation or inhibition) was less than 1000 nM.

`CCS(=O)(=O)c1cccc(-c2ccc(-n3cc(C(C)(C)O)nc3-c3cccc4ccccc34)c(Cl)c2)c1` [Example 31, 2-(1-(3-chloro-3′-(ethyl-sulfonyl)biphenyl-4-yl)-2-(naphthalen-1-yl)-1H-imidazol-4-yl)propan-2-ol]: the IC50 or EC50 (potency, activation or inhibition) is less than 1000 nM.

For `CC(C)(O)c1cn(-c2ccc(-c3ccc(CO)c(S(C)(=O)=O)c3)cc2Cl)c(-c2cccc3ccccc23)n1` [Example 32, 2-(1-(3-chloro-4′-(hydroxy-methyl)-3-(methylsulfonyl)biphenyl-4-yl)-2-(naphthalen-1-yl)-1H-imidazol-4-yl)propan-2-ol], the IC50 or EC50 (potency, activation or inhibition) was less than 1000 nM.

As to `CC(C)(O)c1cn(-c2ccc(-c3cccc(S(C)(=O)=O)c3)cc2Cl)c(-c2nccc3ccccc23)n1` [Example 33, 2-(1-(3-chloro-3′-(methyl-sulfonyl)biphenyl-4-yl)-2-(isoquinolin-1-yl)-1H-imidazol-4-yl)propan-2-ol], the IC50 or EC50 (potency, activation or inhibition) was less than 1000 nM.

Turning to `CCS(=O)(=O)c1cccc(-c2ccc(-n3cc(C(C)(C)O)nc3-c3nccc4ccccc34)c(Cl)c2)c1` [Example 34, 2-(1-(3-chloro-3′-(ethyl-sulfonyl)biphenyl-4-yl)-2-(isoquinolin-1-yl)-1H-imidazol-4-yl)propan-2-ol], the IC50 or EC50 (potency, activation or inhibition) was less than 1000 nM.

Consider `Cc1cc(-c2cccc(S(C)(=O)=O)c2)ccc1-n1cc(C(C)(C)O)nc1-c1cccc2cnccc12` [Example 35, 2-(2-(isoquinolin-5-yl)-1-(3-methyl-3′-(methylsulfonyl)biphenyl-4-yl)-1H-imidazol-4-yl)propan-2-ol], for which the IC50 or EC50 (potency, activation or inhibition) fell in the range of 1000 to 10000 nM.

In the case of `CCS(=O)(=O)c1cccc(-c2ccc(-n3cc(C(C)(C)O)nc3-c3cccc4cnccc34)c(C)c2)c1` [Example 36, 2-(1-(3′-(ethylsulfonyl)-3-methylbiphenyl-4-yl)-2-(isoquinolin-5-yl)-1H-imidazol-4-yl)propan-2-ol], the IC50 or EC50 (potency, activation or inhibition) lay in the range of 1000 to 10000 nM.

On to `CC(C)(O)c1cn(-c2ccc(-c3cccc(S(C)(=O)=O)c3)cc2)c(-c2cnccc2C(F)(F)F)n1` [Example 37, 2-(1-(3′-(methylsulfonyl)biphenyl-4-yl)-2-(4-(trifluoromethyl)pyridin-3-yl)-1H-imidazol-4-yl)propan-2-ol], for which the IC50 or EC50 (potency, activation or inhibition) is greater than 10000 nM.

Regarding `CCS(=O)(=O)c1cccc(-c2ccc(-n3cc(C(C)(C)O)nc3-c3cnccc3C(F)(F)F)cc2)c1` [Example 38, 2-(1-(3′-(ethylsulfonyl)biphenyl-4-yl)-2-(4-(trifluoromethyl)pyridin-3-yl)-1H-imidazol-4-yl)propan-2-ol], the IC50 or EC50 (potency, activation or inhibition) is greater than 10000 nM.

Turning to `Cc1cc(-c2cccc(S(C)(=O)=O)c2)ccc1-n1cc(C(C)(C)O)nc1-c1cccs1` [Example 41], the IC50 or EC50 (potency, activation or inhibition) lay within 1000 to 10000 nM.

Turning to `Cc1cc(-c2cccc(S(C)(=O)=O)c2)ccc1-n1cc(C(C)(C)O)nc1-c1ccc(C)n1C` [Example 42, 2-(2-(1,5-dimethyl-1H-pyrrol-2-yl)-1-(3-methyl-3′-(methylsulfonyl)biphenyl-4-yl)-1H-imidazol-4-yl)propan-2-ol], the IC50 or EC50 (potency, activation or inhibition) was less than 1000 nM.

For `CC(C)(O)c1cn(-c2c(Cl)cccc2Cl)c(-c2ccc(-c3cccc(S(C)(=O)=O)c3)s2)n1` [Example 44, 2-(1-(2,6-dichlorophenyl)-2-(5-(3-(methylsulfonyl)phenyl)thiophen-2-yl)-1H-imidazol-4-yl)propan-2-ol], the IC50 or EC50 (potency, activation or inhibition) lay within 1000 to 10000 nM.

As for `CCS(=O)(=O)c1cccc(-c2ccc(-c3nc(C(C)(C)O)cn3-c3c(Cl)cccc3Cl)s2)c1` [Example 45, 2-(1-(2,6-dichlorophenyl)-2-(5-(3-(ethylsulfonyl)phenyl)thiophen-2-yl)-1H-imidazol-4-yl)propan-2-ol], the IC50 or EC50 (potency, activation or inhibition) lay within 1000 to 10000 nM.
